In brackets after ≈: the same amount, converted by molar mass. Starred links: 1 amine or outer side, 2 acyl side, 3 side chain; linkers in the order of their positions; H or OH if unused. Positions of bridges follow the written chain, without caps; N, C: chain ends. Non-standard residues stand in square brackets, D forms with d. Residues, ends and D or L forms follow the SMILES beside them. *: point of attachment. X1 = CC[C@H](C)[C@@H](N[*:1])[C@@H](O)CC(=O)O[C@H](C(=O)[C@H](C)C(=O)[*:2])C(C)C; NMeY = CN[C@@H](Cc1ccc(O)cc1)C(=O)O; dNMeL = CN[C@H](CC(C)C)C(=O)O; Pyruvoyl = CC(=O)C(=O)*
What was measured:
L-1210 cells = test: Growth inhibition of L-1210 cells; assay type: cell-based, mouse
Experimental: 2.1 Assay Against L-1210 Cells (Ascetic Fluid from DBA/2mouse)
(§1) L-1210 cells were seeded into 16 mm wells at 1×10^4 cells per well in 1 mL aliquots of MEN 10C containing the indicated concentrations of drug. All determinations were carried out in triplicate. Cells were counted after three drugs was counted daily to ensure that the cells remained in exponential growth over the period of observation.

P-388 cells = test: Growth inhibition of P-388 cells; assay type: cell-based, mouse; settings: for % Inhibition / net increase in cell number: three days
Experimental: 2.2 Assay Against P-388 Cells (Lymphoid Neoplasm from DBA/2mouse)
as §1, with “P-388” for “L-1210”, “MEM” for “MEN”, “determination” for “determinations”, “days of incubation. A separate set of cultures within drug” for “drugs”

L-929 cells = test: Growth inhibition of L-929 cells; assay type: cell-based, mouse; settings: for % Inhibition / net increase in cell number: 4 days after seeding
Experimental: 2.3 Assay Against L-929 Cells (Mouse Areolar and Adipose Tissue)
(§2) L-929 cells were seeded into 16 mm wells at 1×10^4 cells per well in 1 mL aliquots of MEM 10C. The following day, medium was replaced with 0.5 mL aliquots of MEM 10C. The following day, the medium was replaced with 0.5 mL aliquots of MEM 10C containing the indicated concentrations of drug. All determinations were carried out in triplicate. A separate set of cultures without drug was counted daily to ensure that the cells remained in exponential growth over the period of observation. Cells were typsinized and counted 4 days after seeding.

B-16 cells = test: Growth inhibition of B-16 cells; assay type: cell-based, mouse; settings: for % Inhibition / net increase in cell number: 4 day after seeding
Experimental: 2.4 Assay Against B-16 (Mouse Melanoma)
B-16 cells were seeded into 16 mm wells at 1×10^4 cells per well in 1 mL aliquots of MEM 10C […] were carried out in triplicate. A separate set of cultures without drug was counted daily to ensure that the cells remained in exponential growth over the period for observation. Cells were typsinized and counted 4 day after seeding.

A-549 cells = test: Growth inhibition of A-549 cells; assay type: cell-based, human; settings: for % Inhibition / net increase in cell number: 4 days after seeding
Experimental: 2.5 Assay Against A-549 Cells (Human Lung Carcinoma)
as §2, with “A-549” for “L-929”, “1” for “1 mL aliquots of MEM 10C. The following day, medium was replaced with 0.5”, “trypsinated” for “typsinized”

HeLa cells = test: Growth inhibition of HeLa cells; assay type: cell-based, human; settings: HeLa cells in vitro
Experimental: 2.6 Assay Against HeLa Cells (Human Cervix Epithelioid Carcinoma)
as §2, with “HeLa” for “L-929”, “1” for “1 mL aliquots of MEM 10C. The following day, medium was replaced with 0.5”, “trypsinized” for “typsinized”

KB cells = test: Growth inhibition of KB cells; assay type: cell-based, human; settings: for % Inhibition / net increase in cell number: KB
[1] = system: Herpes simplex virus, type 1; test: Inhibition of HSV-1 replication in CV-1 cells; assay type: cell-based; design: net virus produced / % Inhibition: dose or concentration left out as unconfirmed; settings: HSV-1 in CV-1 cells; for % Inhibition / net virus produced: 24 hours after infection
Experimental: 2.8 Assay Against HSV-1 (Herpes Simplex Virus Type-1)
16 mm diameter wells were seeded each with 2×10^5 CV-1 cells in 1 mL aliquots of MEM 10C. Four days after, cells were infected with HSV-1 at 10C PFU per well. After adsorption for 1.5 hours, the inoculum was replaced in pairs of wells with 0.5 mL aliquots of MEM 5C containing the indicated concentrations of drug. Cells from two wells without drug were scraped into the medium and frozen 4 hours after infection to provide a baseline for calculating new virus production. The average of these samples was 2.5×10^5+1.2×10^6 PFU per mL. The remaining samples were collected 24 hours after infection.

[2] = system: CV-1 cells (monkey kidney cells); test: Cytotoxicity to CV-1 cells; assay type: cell-based
[3] = system: P-388 mouse leukemia cells; test: P-388 in vivo activity; settings: QD 1-9, IP
[4] = system: Lewis lung carcinoma cells; test: Lewis lung in vivo activity; settings: QD 1-9, IP
B-16 melanoma cells = test: B-16 melanoma in vivo activity; design: species or system mouse; settings: QD 1-9, IP; for B-16 Melanoma % T/C: significant activity T/C ≧ 125
[5] = Immunosuppressive / immunomodulator activity
murine T-cells = test: Growth of murine T-cells
murine B-cells = test: Growth of murine B-cells
murine cells = test: Mixed lymphocyte reaction
[6] = Montgomery et al., Transplantation, 40, 49-56 (1985); cited from earlier work
human lymphocytes = settings: compared with other didemnin compounds; Montgomery et al. (1987); cited from earlier work

CC[C@H](C)[C@H]1NC(=O)[C@@H](NC(=O)[C@@H](CC(C)C)N(C)C(=O)[C@@H]2CCCN2C(=O)C(C)=O)[C@@H](C)OC(=O)[C@H](Cc2ccc(OC)cc2)N(C)C(=O)[C@@H]2CCCN2C(=O)[C@H](CC(C)C)NC(=O)[C@@H](C)C(=O)[C@H](C(C)C)OC(=O)C[C@@H]1O [DDB, dehydrodidemnin B] (Pyruvoyl-P[dNMeL]T[X1]LP[NMeY](Me); ester 3-C)
% Inhibition (L-1210 cells; L-1210, 0.05 ng/mL DDB): 7%
net increase in cell number (L-1210 cells; L-1210, 0.05 ng/mL DDB): 2.7 × 10^5
% Inhibition (L-1210 cells; L-1210, 0.1 ng/mL DDB): 7%
net increase in cell number (L-1210 cells; L-1210, 0.1 ng/mL DDB): 2.7 × 10^5
% Inhibition (L-1210 cells; L-1210, 0.2 ng/mL DDB): 28%
net increase in cell number (L-1210 cells; L-1210, 0.2 ng/mL DDB): 2.1 × 10^5
% Inhibition (L-1210 cells; L-1210, 0.5 ng/mL DDB): 66%
net increase in cell number (L-1210 cells; L-1210, 0.5 ng/mL DDB): 1.0 × 10^5
% Inhibition (L-1210 cells; L-1210, 1 ng/mL DDB): 91%
net increase in cell number (L-1210 cells; L-1210, 1 ng/mL DDB): 2.5 × 10^5
% Inhibition (L-1210 cells; L-1210, 2 ng/mL DDB): 98%
net increase in cell number (L-1210 cells; L-1210, 2 ng/mL DDB): 6.3 × 10^5
IC50 (L-1210 cells; L-1210 cells in vitro): 0.3 ng/mL (≈ 0.27 nM)
% Inhibition (P-388 cells; P-388, 0.12 ng/mL DDB): 29%
net increase in cell number (P-388 cells; P-388, 0.12 ng/mL DDB): 3.97 × 10^5
% Inhibition (P-388 cells; P-388, 0.25 ng/mL DDB): 77%
net increase in cell number (P-388 cells; P-388, 0.25 ng/mL DDB): 1.27 × 10^5
% Inhibition (P-388 cells; P-388, 0.5 ng/mL DDB): 92%
net increase in cell number (P-388 cells; P-388, 0.5 ng/mL DDB): 4.47 × 10^5
IC50 (P-388 cells; P-388 cells in vitro): 0.175 ng/mL (≈ 0.158 nM)
% Inhibition (L-929 cells; L-929, 1 ng/mL DDB): 27%
net increase in cell number (L-929 cells; L-929, 1 ng/mL DDB): 2.31 × 10^5
% Inhibition (L-929 cells; L-929, 2.5 ng/mL DDB): 64%
net increase in cell number (L-929 cells; L-929, 2.5 ng/mL DDB): 1.13 × 10^5
% Inhibition (L-929 cells; L-929, 5 ng/mL DDB): 84%
net increase in cell number (L-929 cells; L-929, 5 ng/mL DDB): 5 × 10^5
IC50 (L-929 cells; L-929 cells in vitro): 1.9 ng/mL (≈ 1.71 nM)
% Inhibition (B-16 cells; B-16, 0.12 ng/mL DDB): 25%
net increase in cell number (B-16 cells; B-16, 0.12 ng/mL DDB): 1.27 × 10^5
% Inhibition (B-16 cells; B-16, 0.16 ng/mL DDB): 0%
net increase in cell number (B-16 cells; B-16, 0.16 ng/mL DDB): 1.71 × 10^5
% Inhibition (B-16 cells; B-16, 0.25 ng/mL DDB): 54%
net increase in cell number (B-16 cells; B-16, 0.25 ng/mL DDB): 8.25 × 10^5
% Inhibition (B-16 cells; B-16, 0.5 ng/mL DDB): 74%
net increase in cell number (B-16 cells; B-16, 0.5 ng/mL DDB): 4.50 × 10^4
% Inhibition (B-16 cells; B-16, 1.0 ng/mL DDB): 83%
net increase in cell number (B-16 cells; B-16, 1.0 ng/mL DDB): 2.88 × 10^4
IC50 (B-16 cells; B-16 cells in vitro): 0.225 ng/mL (≈ 0.203 nM)
% Inhibition (A-549 cells; A-549, 0.25 ng/mL DDB): 41%
net increase in cell number (A-549 cells; A-549, 0.25 ng/mL DDB): 4.80 × 10^4
% Inhibition (A-549 cells; A-549, 0.50 ng/mL DDB): 50%
net increase in cell number (A-549 cells; A-549, 0.50 ng/mL DDB): 4.00 × 10^4
% Inhibition (A-549 cells; A-549, 1.0 ng/mL DDB): 68%
net increase in cell number (A-549 cells; A-549, 1.0 ng/mL DDB): 2.50 × 10^4
% Inhibition (A-549 cells; A-549, 2.5 ng/mL DDB): 84%
net increase in cell number (A-549 cells; A-549, 2.5 ng/mL DDB): 1.30 × 10^4
IC50 (A-549 cells; A-549 cells in vitro): 0.5 ng/mL (≈ 0.45 nM)
IC50 (HeLa cells): 0.5 ng/mL (≈ 0.45 nM)
IC50 (KB cells; KB cells in vitro): 5.6 ng/mL (≈ 5.04 nM)
% Inhibition (KB cells; 2.5 ng/mL DDB): 0%
net increase in cell number (KB cells; 2.5 ng/mL DDB): 4.57 × 10^4
% Inhibition (KB cells; 5 ng/mL DDB): 46%
net increase in cell number (KB cells; 5 ng/mL DDB): 2.40 × 10^4
% Inhibition (KB cells; 10 ng/mL DDB): 77%
net increase in cell number (KB cells; 10 ng/mL DDB): 1.02 × 10^4
IC50 [1]: 60 ng/mL (≈ 54 nM)
% Inhibition ([1]; 0.03 DDB): 16%
net virus produced ([1]; 0.03 DDB): 3.8 × 10^8 PFU/mL
% Inhibition ([1]; 0.1 DDB): 67%
net virus produced ([1]; 0.1 DDB): 1.5 × 10^8 PFU/mL
% Inhibition ([1]; 0.3 DDB): 96%
net virus produced ([1]; 0.3 DDB): 1.9 × 10^8 PFU/mL
% Inhibition ([1]; 1 DDB): 100%
net virus produced ([1]; 1 DDB): 0 PFU/mL
IC50 [2]: 1000 ng/mL (≈ 901 nM)
P-388, Median Survival Time ([3]; 80 μg/kg/injn): 19.5 days
P-388, Median Survival Time ([3]; 160 μg/kg/injn): 21.0 days
Lewis Lung, Mean Tumor Volume ([4]; 80 μg/kg/injn): 189 mm^3
Lewis Lung, Mean Tumor Volume ([4]; 160 μg/kg/injn): 0 mm^3
B-16 Melanoma Median Survival Time Days (B-16 melanoma cells; 80 μg/kg/injn): >27.0 days
B-16 Melanoma % T/C (B-16 melanoma cells; 80 μg/kg/injn): >158%
B-16 Melanoma Median Survival Time Days (B-16 melanoma cells; 160 μg/kg/injn): >27.0 days
B-16 Melanoma % T/C (B-16 melanoma cells; 160 μg/kg/injn): >158%
immunomodulator activity [5]: powerful immunomodulator
growth of murine T-cells (murine T-cells): inhibits the growth
growth of murine B-cells (murine B-cells): inhibits the growth
immune reaction in the mixed lymphocyte reaction (murine cells): suppresses the immune reaction of murine cells

CC[C@H](C)[C@H]1NC(=O)[C@@H](NC(=O)[C@@H](CC(C)C)N(C)C(=O)[C@@H]2CCCN2C(=O)C(C)O)[C@@H](C)OC(=O)[C@H](Cc2ccc(OC)cc2)N(C)C(=O)[C@@H]2CCCN2C(=O)[C@H](CC(C)C)NC(=O)[C@@H](C)C(=O)[C@H](C(C)C)OC(=O)C[C@@H]1O (stereo partly shown) [Didemnin B]
immunosuppressive activity [6]: potent immunosuppressive activity
inhibition of binding of prolactin to human lymphocytes (human lymphocytes): more potent inhibition

— USRE39887E1, “Dehydrodidemnin B” (Pharma Mar, S.A., priority 1989, dated 2007)
